Here are results for 5 compounds from publication PMC7849013, “Structural Investigations of the Inhibition of Escherichia coli AmpC β-Lactamase by Diazabicyclooctanes” (Antimicrobial Agents and Chemotherapy, 2021).

Structures are written as SMILES. ≈ marks a conversion by molar mass, not a printed value. Where “and” joins values, the source holds several entries; their conditions need not be identical. Equal values may be shown once. Where only a bound is given, the exact number is not on record here.

The subject of data set [1] is DH5α E. coli containing the pAD7-AmpCEC plasmid. As to the kind of experiment: MIC by broth microdilution, AmpCEC-producing strain. Particulars: for MIC: Escherichia coli, read-out: Minimum Inhibitory Concentration, compound alone, DH5α pAD7 AmpCEC. The class given is cell-based, Escherichia coli. As for the experimental part: (§1) MICs were determined by broth microdilutions in triplicate and interpreted using published guidelines described by the CLSI. […] DBOs were also tested as the sole administered antimicrobial (0.25 to 256 μg ml^−1) against both strains (Table S5).

Another data set has as its system E. coli ATCC 25922. Also noted: method as in PMID 30861342. Particulars: E. coli ATCC 25922, compound alone; cited from earlier work.
For another data set, the system named is PDC-3. Details: method as in earlier work. Particulars: ref [2]; cited from earlier work.
In data set [2] the test system is DH5α Escherichia coli (wt). Briefly: MIC by broth microdilution, wild-type strain. The format is cell-based. Particulars: compound alone, read-out: Minimum Inhibitory Concentration. Here is the method:
as §1

In data set [3] the target is T1, AmpC SBL from Escherichia coli (AmpCEC) (Escherichia coli, UniProt P00811).
T1 construct: made in house
As to the kind of experiment: Steady-state competitive inhibition kinetics of AmpCEC with fluorescent substrate FC-5 (kobs, Kiapp, k2/K). The format is biochemical. Here is the method: (§2) Assays were performed and analyzed as described previously ([34]). In summary, assays in the presence of inhibitors were carried out under steady-state conditions monitoring hydrolysis of the fluorescent substrate FC-5 ([33]) in 100 mM phosphate buffer, pH 7.5, supplemented with 0.01% (vol/vol) Triton X-100. Fluorescence was measured using a PHERAstar (BMG Labtech) plate reader, recording emission spectra at an excitation wavelength of 380 nm and emission wavelength of 460 nm. […] The pseudo first-order rate constant, kobs, and the apparent inhibition constant, Kiapp, were obtained by assaying 100 nM AmpCEC with 5 μM FC-5 in the presence of various concentrations of the inhibitor. Reactions were initiated by addition of AmpCEC and immediately monitored continuously over 30 s. […] The second-order rate constant (k2/K) was obtained from linear regression of measured kobs values against inhibitor concentrations (see Fig. S3b in the supplemental material) and corrected by the Michaelis constant (Km) and concentration of the substrate. Kiapps ([50]) were determined by linear regression of the reciprocals of the initial rates against inhibitor concentration (Fig. S3a) and corrected using the experimentally determined substrate Km and substrate concentration. Inhibitor off rates (koff) were measured using the jump-dilution method ([51]); thus, AmpCEC (1 μM) was incubated with the respective inhibitor (10 μM) for 30 min at room temperature and diluted 100,000-fold in the assay buffer to a final enzyme concentration of 10 pM and then immediately assayed using 25 μM (final concentration) FC-5. Off rates were determined from exponential regression in relation to turnover of no enzyme and no inhibitor controls (Fig. S3c). Half-lives of the enzyme-inhibitor complexes were directly calculated from the measured koff values.
Figure S1: Progression curves used in kobs determinations. AmpCEC (100 nM) was assayed using FC-5 (5 μM)
Reactions were initiated by addition of
AmpCEC and immediately monitored, as described in Materials and Methods. Buffer: 50 mM phosphate buffer, pH
7.5 and 0.01% (v/v) Triton X-100. Curves were fitted to Equation 5.
(A) Determination of Kiapp values
for AmpCEC inhibition by DBOs. […]

In a further data set the test system is PDC-1. Details: method as in earlier work. Particulars: ref [2]; cited from earlier work.
Another data set deals with ADC-7. Details: method as in earlier work. Particulars: ref [2], cited from earlier work; for Ki: read-out: Kiapp.
In data set [4] the target is T1, AmpC SBL from Escherichia coli (AmpCEC). Briefly: AmpCEC inhibition pIC50 with varied preincubation time and pH (FC-5). The class given is biochemical.
The target is the same in data set [5]. Described as above. The class given is biochemical. Here is the method:
as §2
pre-incubated with the inhibitors for the indicated times at room temperature and assayed using 5 μM FC-5 [1].
(1 picture or pasted object on this page, not shown here)
AmpCEC (500 pM) was preincubated
with the inhibitors for the indicated times at room temperature, then assayed using 5 μM FC-5 [1]. Buffer: 50 mM
regression (Figure S2), as described in the Materials and Methods.
This is another data set of the same source.

The target is the same in data set [6]. Briefly: Jump-dilution off-rate of AmpCEC-DBO carbamoyl complexes (FC-5). The class given is biochemical. Particulars: jump dilution 100,000-fold; 1 μM AmpCEC preincubated with 10 μM DBO 30 min at room temperature; 25 μM FC-5. As for the experimental part: as §2, with “Inhibitor off rates (koff) were measured using the jump-dilution method ([51]); thus, AmpCEC (1 μM) was incubated with the respective inhibitor (10 μM) for 30 min at room temperature and diluted 100,000-fold in the assay buffer to a final enzyme concentration of 10 pM and then immediately assayed using 25 μM (final concentration) FC-5.” left out, “Half-lives of the enzyme-inhibitor complexes were directly calculated from the measured koff values.” left out

Where [7] appears, read: [DBO] 5.00 µM, 100 nM AmpCEC, 5 μM FC-5.
[8] abbreviates: pIC50, 0 min preincubation, pH 7.0.
[9] abbreviates: pIC50, 0 min preincubation, pH 8.0.
The mark [10] stands for this setting: pIC50, 10 min preincubation, pH 7.0.
The mark [11] stands for this setting: pIC50, 10 min preincubation, pH 8.0.
The mark [12] stands for this setting: pIC50, 30 min preincubation, pH 7.0.
Where [13] appears, read: pIC50, 60 min preincubation, pH 7.0.
The mark [14] stands for this setting: pIC50, 60 min preincubation, pH 8.0.
Where [15] appears, read: pIC50, 360 min preincubation, pH 7.0.
The mark [16] stands for this setting: pIC50, 360 min preincubation, pH 8.0.
The mark [17] stands for this setting: pIC50, 0 min preincubation, pH 7.5, 500 pM AmpCEC, 5 μM FC-5.
Setting [18] is: pIC50, 10 min preincubation, pH 7.5.
Setting [19] is: pIC50, 30 min preincubation, pH 7.5.
The mark [20] stands for this setting: pIC50, 60 min preincubation, pH 7.5.
Where [21] appears, read: pIC50, 360 min preincubation, pH 7.5, 500 pM AmpCEC, 5 μM FC-5.

T1 sequence (P00811 20-377): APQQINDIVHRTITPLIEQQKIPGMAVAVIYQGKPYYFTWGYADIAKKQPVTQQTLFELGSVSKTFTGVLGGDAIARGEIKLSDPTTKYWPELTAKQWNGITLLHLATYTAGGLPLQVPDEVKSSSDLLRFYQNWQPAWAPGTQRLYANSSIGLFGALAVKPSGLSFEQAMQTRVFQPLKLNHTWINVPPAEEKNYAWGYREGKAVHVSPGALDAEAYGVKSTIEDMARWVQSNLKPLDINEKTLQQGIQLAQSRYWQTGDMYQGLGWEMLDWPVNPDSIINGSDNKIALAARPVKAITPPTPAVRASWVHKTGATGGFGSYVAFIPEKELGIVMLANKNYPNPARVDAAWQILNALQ

For the compound `NC(=O)[C@@H]1CC[C@@H]2CN1C(=O)N2OS(=O)(=O)O` [AVI, avibactam], the MIC (in data set [1]; in the data set on E. coli ATCC 25922; in data set [2]) was 16 µg/mL (≈ 60.3 µM) each time. For the same compound, the k2/K is reported as 29 (M-1s-1) x 10 3 with PDC-3, 2900 (M-1s-1) x 10 3 in the data set on PDC-1 and 3.9 ± 0.4 (M-1s-1) x 10 3 in the data set on ADC-7. Also, the results for the t1/2 in the data set with PDC-3, in the data set with PDC-1 and with ADC-7 were 14 min, 6 min and 33 ± 5 min, respectively. The kobs in data set [3] ([DBO] 0.04 µM) amounted to 0.135 ± 0.002; in [3] ([DBO] 0.16 µM) it was 0.134 ± 0.001; in data set [3] ([DBO] 0.31 µM), 0.135 ± 0.006; in data set [3] ([DBO] 0.63 µM) it was 0.144 ± 0.002; in data set [3] ([DBO] 1.25 µM), 0.168 ± 0.008; in data set [3] (setting [7]), 0.305 ± 0.004. Besides, the Ki on ADC-7 is 19 ± 2 µM.
Consider `CC(C)(O/N=C(\C(=O)N[C@@H]1C(=O)N2C(C(=O)[O-])=C(C[n+]3ccccc3)CS[C@H]12)c1csc(N)n1)C(=O)O` [CAZ, ceftazidime], for which the MIC is 256 µg/mL (≈ 468 µM) in [1] and 1 µg/mL (≈ 1.83 µM) in data set [2].
Consider `NCCONC(=O)[C@@H]1CC[C@@H]2CN1C(=O)N2OS(=O)(=O)O` [NAC, nacubactam], for which the IC50 is 200 nM in [4] (setting [8]); 141 nM in data set [4] (setting [9]); 91.2 nM in data set [4] (setting [10]); 58.9 nM in [4] (setting [11]); 31.6 nM in data set [4] (setting [12]); 16.2 nM in [4] (setting [13]). The IC50 in [4] (setting [14]) was 15.1 nM; in [4] (setting [15]), 6.46 nM; in data set [4] (setting [16]), 5.13 nM; in data set [5] (setting [17]) it was 178 nM; in data set [5] (setting [18]), 66.1 nM; in [5] (setting [19]), 34.7 nM. Besides, the IC50 was 13.8 nM in data set [5] (setting [20]) and 2.95 nM in data set [5] (setting [21]). Besides, the MIC is 4 µg/mL (≈ 12.3 µM) in [1], 2 µg/mL (≈ 6.17 µM) in the data set on E. coli ATCC 25922 and 2 µg/mL (≈ 6.17 µM) in data set [2]. Moreover, the “Minimum Inhibitory Concentration” value in data set [1] (compound alone, DH5α pAD7 AmpCEC) worked out at 2 µg/mL. For the same compound, the “koff (decarbamoylation rate)” value in [6] is 0.049 s^−1, ×10^−3 and 0.049 ± 0.01 s^−1, ×10^−3. In data set [3], this compound returned a Ki of 5 ± 0.1 µM. Besides, the kobs in data set [3] ([DBO] 0.04 µM) was found to be 0.142 ± 0.003; in data set [3] ([DBO] 0.16 µM), 0.142 ± 0.003; in data set [3] ([DBO] 0.31 µM) it was 0.153 ± 0.005; in data set [3] ([DBO] 0.63 µM), 0.153 ± 0.002; in data set [3] ([DBO] 1.25 µM) it was 0.185 ± 0.003; in [3] (setting [7]), 0.393 ± 0.008. The kinact/KI in [3] (pH 7.5, read-out: k2/K (carbamoylation rate)) came out at 52000 ± 2000 M⁻¹ s⁻¹.
Take `O=C(NC1CCNCC1)[C@@H]1CC[C@@H]2CN1C(=O)N2OS(=O)(=O)O` [REL, relebactam]: the IC50 in data set [4] (setting [8]) was 166 nM; in data set [4] (setting [9]) it was 158 nM; in [4] (setting [10]), 115 nM; in [4] (setting [11]) it was 63.1 nM; in [4] (setting [12]) it was 49 nM; in data set [4] (setting [13]), 17.4 nM. The IC50 was 13.2 nM in [4] (setting [14]); 4.17 nM in [4] (setting [15]); 10.5 nM in data set [4] (setting [16]); 245 nM in [5] (setting [17]); 107 nM in data set [5] (setting [18]); 34.7 nM in [5] (setting [19]). In addition, the results for the IC50 in data set [5] (setting [20]) and in [5] (setting [21]) were 20.4 nM and 3.89 nM, respectively. Further, the MIC in data set [1] is 128 µg/mL (≈ 367 µM); with E. coli ATCC 25922, more than 64 µg/mL; in data set [2], 128 µg/mL (≈ 367 µM). The k2/K is recorded as 46 ± 5 (M-1s-1) x 10 3 in the data set on PDC-3 and 7.8 ± 0.8 (M-1s-1) x 10 3 in the data set with ADC-7. The values for the t1/2 with PDC-3 and in the data set on ADC-7 were 13 ± 4 min and 39 ± 4 min, respectively. Further, the Ki in data set [3] was 7.1 ± 0.3 µM. For the same compound, the kobs is given as 0.134 ± 0.007 in [3] ([DBO] 0.04 µM); 0.138 ± 0.003 in data set [3] ([DBO] 0.16 µM); 0.136 ± 0.002 in data set [3] ([DBO] 0.31 µM); 0.143 ± 0.002 in [3] ([DBO] 0.63 µM); 0.167 ± 0.005 in [3] ([DBO] 1.25 µM); 0.314 ± 0.012 in data set [3] (setting [7]).
Turning to `O=C(NNC(=O)[C@@H]1CC[C@@H]2CN1C(=O)N2OS(=O)(=O)O)[C@@H]1CCCNC1` [ZID, zidebactam], the IC50 is 34.7 nM in data set [4] (setting [8]); 17 nM in data set [4] (setting [9]); 16.6 nM in data set [4] (setting [10]); 8.13 nM in [4] (setting [11]); 8.71 nM in [4] (setting [12]); 5.75 nM in [4] (setting [13]). Also, the IC50 in data set [4] (setting [14]) was 3.89 nM; in data set [4] (setting [15]) it was 5.25 nM; in [4] (setting [16]) it was 4.37 nM; in [5] (setting [17]), 25.1 nM; in data set [5] (setting [18]), 11 nM; in [5] (setting [19]) it was 7.59 nM. Moreover, the IC50 in data set [5] (setting [20]) was 4.68 nM; in data set [5] (setting [21]) it was 3.47 nM. Also, the MIC in [1] was not above 0.25 µg/mL; with E. coli ATCC 25922 it was 0.125 µg/mL (≈ 0.319 µM); in data set [2] it was not above 0.25 µg/mL. The figures for the k2/K with PDC-3 and in the data set on ADC-7 were 480 ± 70 (M-1s-1) x 10 3 and 35 ± 4 (M-1s-1) x 10 3, respectively. Also, the t1/2 with PDC-3 is reported as 3 ± 0.4 min; in the data set with ADC-7, 11 ± 1 min. Besides, the Ki was 0.69 ± 0.04 µM in [3] and 2.3 ± 0.3 µM at ADC-7. Further, the kobs in data set [3] ([DBO] 0.04 µM) was found to be 0.150 ± 0.002; in data set [3] ([DBO] 0.16 µM) it was 0.183 ± 0.002; in data set [3] ([DBO] 0.31 µM), 0.246 ± 0.002; in data set [3] ([DBO] 0.63 µM), 0.357 ± 0.003.

As usually defined, the IC50 is the concentration that gives 50% inhibition.
